Key:
Format in all cases: cell-based
[1] = system: A2780; experiment: Cancer cell panel, cell viability (resazurin): Ovarian, A2780; conditions: 72 hours, labelled drug combined with Example 3
[2] = system: H2122; experiment: Cancer cell panel, cell viability (resazurin): NSCLC, H2122; conditions: 72 hours, labelled drug combined with Example 3
[3] = system: PC3; experiment: Cancer cell panel, cell viability (resazurin): Prostate, PC3; conditions: 72 hours, labelled drug combined with Example 3
[4] = system: U266; experiment: Cancer cell panel, cell viability (resazurin): multiple myeloma, U266; conditions: 72 hours, labelled drug combined with Example 3
Description: (§1) Cells were plated in 96-well plates and treated for 72 hours with a serially diluted CK2 inhibitor or anti-cancer drug or their combination. The suspension cell lines were treated right after plating, while the adherent cells were allowed to attach overnight prior to the start of the treatment.
(§2) Cell viability was determined by adding resazurin to cell cultures and measuring fluorescence with a plate reader. Relative cell viability was calculated by dividing the cell viability signal from a test sample by that of a non-treated control. […] Bliss Independence and Highest Single Agent models were used to determine if there is synergy, additivity or antagonism between the CK2 inhibitor and an anti-cancer drug.

[5] = system: DLD-1; experiment: Cancer cell panel, cell viability (resazurin): Colon, DLD-1; conditions: DLD-1 (Colon), 72 hours; labelled drug combined with Example 3
[6] = system: WM-115; experiment: Cancer cell panel, cell viability (resazurin): Melanoma, WM-115; conditions: WM-115 (Melanoma), 72 hours; labelled drug combined with Example 3
[7] = system: 786-O; experiment: Cancer cell panel, cell viability (resazurin): Renal, 786-O; conditions: 786-O (Renal), 72 hours; labelled drug combined with Example 3
[8] = system: MDA-MB-453; experiment: Cancer cell panel, cell viability (resazurin): Breast, MDA-MB-453; conditions: MDA-MB-453 (Breast), 72 hours; labelled drug combined with Example 3
[9] = system: OVCAR-3; experiment: Cancer cell panel, cell viability (resazurin): Ovarian, OVCAR-3; conditions: OVCAR-3 (Ovarian), 72 hours; labelled drug combined with Example 3
Description: as §1, §2

[10] = system: BT-474; experiment: Cancer cell panel, cell viability (resazurin): Breast, BT-474; conditions: BT-474 (Breast), 72 hours; labelled drug combined with Example 3
[11] = system: MOLT4; experiment: Cancer cell panel, cell viability (resazurin): Leukemia, MOLT4; conditions: 72 hours, labelled drug combined with Example 3
Description: as §1, §2

[12] = system: K562; experiment: Cancer cell panel, cell viability (resazurin): Leukemia, K562; conditions: 72 hours, labelled drug combined with Example 3
[13] = system: HT29; experiment: Cancer cell panel, cell viability (resazurin): Colon, HT29; conditions: 72 hours, labelled drug combined with Example 3
Description: as §1, §2

[14] = system: T47D; experiment: Cancer cell panel, cell viability (resazurin): Breast, T47D; conditions: 72 hours, labelled drug combined with Example 3
Description: as §1, §2

[15] = system: SkBr-3; experiment: Cancer cell panel, cell viability (resazurin): Breast, SkBr-3; conditions: SkBr-3 (Breast), 72 hours; labelled drug combined with Example 3
[16] = system: Caov-3; experiment: Cancer cell panel, cell viability (resazurin): Ovarian, Caov-3; conditions: Caov-3 (Ovarian), 72 hours; labelled drug combined with Example 3
[17] = system: NAMALWA; experiment: Cancer cell panel, cell viability (resazurin): Burkitt's Lymphoma, NAMALWA; conditions: 72 hours, labelled drug combined with Example 3
[18] = system: RPMI8226; experiment: Cancer cell panel, cell viability (resazurin): multiple myeloma, RPMI8226; conditions: 72 hours, labelled drug combined with Example 3
Description: as §1, §2

[19] = system: A375; experiment: Cancer cell panel, cell viability (resazurin): Melanoma, A375; conditions: 72 hours, labelled drug combined with Example 3
[20] = system: SKOV-3; experiment: Cancer cell panel, cell viability (resazurin): Ovarian, SKOV-3; conditions: SKOV-3 (Ovarian), 72 hours; labelled drug combined with Example 3
[21] = system: ACHN; experiment: Cancer cell panel, cell viability (resazurin): Renal, ACHN; conditions: 72 hours, labelled drug combined with Example 3
Description: as §1, §2

[22] = system: LoVo; experiment: Cancer cell panel, cell viability (resazurin): Colon, LoVo; conditions: 72 hours, labelled drug combined with Example 3
Description: as §1, §2

[23] = system: MDA-MB-231; experiment: Cancer cell panel, cell viability (resazurin): Breast, MDA-MB-231; conditions: MDA-MB-231 (Breast), 72 hours; labelled drug combined with Example 3
Description: as §1, §2

[24] = system: BT-20; experiment: Cancer cell panel, cell viability (resazurin): Breast, BT-20; conditions: BT-20 (Breast), 72 hours; labelled drug combined with Example 3
[25] = system: SK-MEL-24; experiment: Cancer cell panel, cell viability (resazurin): Melanoma, SK-MEL-24; conditions: SK-MEL-24 (Melanoma), 72 hours; labelled drug combined with Example 3
[26] = system: U87MG; experiment: Cancer cell panel, cell viability (resazurin): Glioblastoma, U87MG; conditions: 72 hours, labelled drug combined with Example 3
Description: as §1, §2

[27] = system: HL60; experiment: Cancer cell panel, cell viability (resazurin): Leukemia, HL60; conditions: 72 hours, labelled drug combined with Example 3
[28] = system: Caki-1; experiment: Cancer cell panel, cell viability (resazurin): Renal, Caki-1; conditions: Caki-1 (Renal), 72 hours; labelled drug combined with Example 3
Description: as §1, §2

[29] = system: SK-MEL-3; experiment: Cancer cell panel, cell viability (resazurin): Melanoma, SK-MEL-3; conditions: SK-MEL-3 (Melanoma), 72 hours; labelled drug combined with Example 3
[30] = system: EOL-1; experiment: Cancer cell panel, cell viability (resazurin): Leukemia, EOL-1; conditions: EOL-1 (Leukemia), 72 hours; labelled drug combined with Example 3
Description: as §1, §2

[31] = system: ZR-75-1; experiment: Cancer cell panel, cell viability (resazurin): Breast, ZR-75-1; conditions: ZR-75-1 (Breast), 72 hours; labelled drug combined with Example 3
[32] = system: BxPC3; experiment: Cancer cell panel, cell viability (resazurin): Pancreatic, BxPC3; conditions: 72 hours, labelled drug combined with Example 3
[33] = system: H1975; experiment: Cancer cell panel, cell viability (resazurin): NSCLC, H1975; conditions: 72 hours, labelled drug combined with Example 3
Description: as §1, §2

[34] = system: H23; experiment: Cancer cell panel, cell viability (resazurin): NSCLC, H23; conditions: 72 hours, labelled drug combined with Example 3
[35] = system: Panc-1; experiment: Cancer cell panel, cell viability (resazurin): Pancreatic, Panc-1; conditions: Panc-1 (Pancreatic), 72 hours; labelled drug combined with Example 3
Description: as §1, §2

[36] = system: H1299; experiment: Cancer cell panel, cell viability (resazurin): NSCLC, H1299; conditions: 72 hours, labelled drug combined with Example 3
[37] = system: Daudi; experiment: Cancer cell panel, cell viability (resazurin): Burkitt's Lymphoma, Daudi; conditions: 72 hours, labelled drug combined with Example 3
Description: as §1, §2

[38] = system: Colo205; experiment: Cancer cell panel, cell viability (resazurin): Colon, Colo205; conditions: 72 hours, labelled drug combined with Example 3
[39] = system: H460; experiment: Cancer cell panel, cell viability (resazurin): NSCLC, H460; conditions: 72 hours, labelled drug combined with Example 3
Description: as §1, §2

## C#Cc1cccc(Nc2ncnc3cc(OCCOC)c(OCCOC)cc23)c1 [Erlotinib, erlotinib]
[1]
  synergy, additivity or antagonism of the combination of Example 3 with the anti-cancer drug: + + (Slight synergy relative to each agent alone (CI = 0.75-0.9 by Bliss Independence Model))
[2]
  synergy, additivity or antagonism of the combination of Example 3 with the anti-cancer drug: + + + + (Strong synergy relative to each agent alone (CI < 0.4 by Bliss Independence Model))
[3]
  synergy, additivity or antagonism of the combination of Example 3 with the anti-cancer drug: − (Slightly antagonistic relative to each agent alone (CI = 1.1-1.2 by Highest Single Agent Model))
[4]
  synergy, additivity or antagonism of the combination of Example 3 with the anti-cancer drug: + (Additive relative to each agent alone (CI = 0.9-1 by Bliss Independence Model and <0.9 by Highest Single Agent Model))
[5]
  synergy, additivity or antagonism of the combination of Example 3 with the anti-cancer drug: + + + (Synergy relative to each agent alone (CI = 0.4-0.74 by Bliss Independence Model))
[6]
  synergy, additivity or antagonism of the combination of Example 3 with the anti-cancer drug: + (Additive relative to each agent alone (CI = 0.9-1 by Bliss Independence Model and <0.9 by Highest Single Agent Model))
[7]
  synergy, additivity or antagonism of the combination of Example 3 with the anti-cancer drug: + + (Slight synergy relative to each agent alone (CI = 0.75-0.9 by Bliss Independence Model))
[8]
  synergy, additivity or antagonism of the combination of Example 3 with the anti-cancer drug: + + (Slight synergy relative to each agent alone (CI = 0.75-0.9 by Bliss Independence Model))
[9]
  synergy, additivity or antagonism of the combination of Example 3 with the anti-cancer drug: + (Additive relative to each agent alone (CI = 0.9-1 by Bliss Independence Model and <0.9 by Highest Single Agent Model))
[10]
  synergy, additivity or antagonism of the combination of Example 3 with the anti-cancer drug: + + (Slight synergy relative to each agent alone (CI = 0.75-0.9 by Bliss Independence Model))
[11]
  synergy, additivity or antagonism of the combination of Example 3 with the anti-cancer drug: + + (Slight synergy relative to each agent alone (CI = 0.75-0.9 by Bliss Independence Model))
[12]
  synergy, additivity or antagonism of the combination of Example 3 with the anti-cancer drug: + + + (Synergy relative to each agent alone (CI = 0.4-0.74 by Bliss Independence Model))
[13]
  synergy, additivity or antagonism of the combination of Example 3 with the anti-cancer drug: + + (Slight synergy relative to each agent alone (CI = 0.75-0.9 by Bliss Independence Model))
[14]
  synergy, additivity or antagonism of the combination of Example 3 with the anti-cancer drug: + (Additive relative to each agent alone (CI = 0.9-1 by Bliss Independence Model and <0.9 by Highest Single Agent Model))
[15]
  synergy, additivity or antagonism of the combination of Example 3 with the anti-cancer drug: + + (Slight synergy relative to each agent alone (CI = 0.75-0.9 by Bliss Independence Model))
[16]
  synergy, additivity or antagonism of the combination of Example 3 with the anti-cancer drug: + + (Slight synergy relative to each agent alone (CI = 0.75-0.9 by Bliss Independence Model))
[17]
  synergy, additivity or antagonism of the combination of Example 3 with the anti-cancer drug: + (Additive relative to each agent alone (CI = 0.9-1 by Bliss Independence Model and <0.9 by Highest Single Agent Model))
[18]
  synergy, additivity or antagonism of the combination of Example 3 with the anti-cancer drug: + + + (Synergy relative to each agent alone (CI = 0.4-0.74 by Bliss Independence Model))
[19]
  synergy, additivity or antagonism of the combination of Example 3 with the anti-cancer drug: + + (Slight synergy relative to each agent alone (CI = 0.75-0.9 by Bliss Independence Model))
[20]
  synergy, additivity or antagonism of the combination of Example 3 with the anti-cancer drug: + + + (Synergy relative to each agent alone (CI = 0.4-0.74 by Bliss Independence Model))
[21]
  synergy, additivity or antagonism of the combination of Example 3 with the anti-cancer drug: + (Additive relative to each agent alone (CI = 0.9-1 by Bliss Independence Model and <0.9 by Highest Single Agent Model))
[22]
  synergy, additivity or antagonism of the combination of Example 3 with the anti-cancer drug: + (Additive relative to each agent alone (CI = 0.9-1 by Bliss Independence Model and <0.9 by Highest Single Agent Model))
[23]
  synergy, additivity or antagonism of the combination of Example 3 with the anti-cancer drug: + + (Slight synergy relative to each agent alone (CI = 0.75-0.9 by Bliss Independence Model))
[24]
  synergy, additivity or antagonism of the combination of Example 3 with the anti-cancer drug: + + + (Synergy relative to each agent alone (CI = 0.4-0.74 by Bliss Independence Model))
[25]
  synergy, additivity or antagonism of the combination of Example 3 with the anti-cancer drug: + (Additive relative to each agent alone (CI = 0.9-1 by Bliss Independence Model and <0.9 by Highest Single Agent Model))
[26]
  synergy, additivity or antagonism of the combination of Example 3 with the anti-cancer drug: + (Additive relative to each agent alone (CI = 0.9-1 by Bliss Independence Model and <0.9 by Highest Single Agent Model))
[27]
  synergy, additivity or antagonism of the combination of Example 3 with the anti-cancer drug: + + (Slight synergy relative to each agent alone (CI = 0.75-0.9 by Bliss Independence Model))
[28]
  synergy, additivity or antagonism of the combination of Example 3 with the anti-cancer drug: + (Additive relative to each agent alone (CI = 0.9-1 by Bliss Independence Model and <0.9 by Highest Single Agent Model))
[29]
  synergy, additivity or antagonism of the combination of Example 3 with the anti-cancer drug: + (Additive relative to each agent alone (CI = 0.9-1 by Bliss Independence Model and <0.9 by Highest Single Agent Model))
[30]
  synergy, additivity or antagonism of the combination of Example 3 with the anti-cancer drug: + (Additive relative to each agent alone (CI = 0.9-1 by Bliss Independence Model and <0.9 by Highest Single Agent Model))
[31]
  synergy, additivity or antagonism of the combination of Example 3 with the anti-cancer drug: + (Additive relative to each agent alone (CI = 0.9-1 by Bliss Independence Model and <0.9 by Highest Single Agent Model))
[32]
  synergy, additivity or antagonism of the combination of Example 3 with the anti-cancer drug: + + + + (Strong synergy relative to each agent alone (CI < 0.4 by Bliss Independence Model))
[33]
  synergy, additivity or antagonism of the combination of Example 3 with the anti-cancer drug: + + (Slight synergy relative to each agent alone (CI = 0.75-0.9 by Bliss Independence Model))
[34]
  synergy, additivity or antagonism of the combination of Example 3 with the anti-cancer drug: + + + (Synergy relative to each agent alone (CI = 0.4-0.74 by Bliss Independence Model))
[35]
  synergy, additivity or antagonism of the combination of Example 3 with the anti-cancer drug: + (Additive relative to each agent alone (CI = 0.9-1 by Bliss Independence Model and <0.9 by Highest Single Agent Model))
[36]
  synergy, additivity or antagonism of the combination of Example 3 with the anti-cancer drug: + (Additive relative to each agent alone (CI = 0.9-1 by Bliss Independence Model and <0.9 by Highest Single Agent Model))
[37]
  synergy, additivity or antagonism of the combination of Example 3 with the anti-cancer drug: + + (Slight synergy relative to each agent alone (CI = 0.75-0.9 by Bliss Independence Model))
[38]
  synergy, additivity or antagonism of the combination of Example 3 with the anti-cancer drug: + + + (Synergy relative to each agent alone (CI = 0.4-0.74 by Bliss Independence Model))
[39]
  synergy, additivity or antagonism of the combination of Example 3 with the anti-cancer drug: + + + + (Strong synergy relative to each agent alone (CI < 0.4 by Bliss Independence Model))

Source: patent US10227344B2, “CK2 inhibitors, compositions and methods thereof” (Polaris Pharmaceuticals, Inc., priority 2016, dated 2019)
